Results as given in patent US20040110775A1, “Cyclin dependent kinase inhibiting purine derivatives” (priority 2001, published 2004).
Where “and” joins values, the source holds several entries; their conditions need not be identical. Identical values can stand only once. Like-named read-outs stand apart in the source and are kept apart here.

Tests used:
p34 cdc2(CDK1)/cyclinB = experiment: CDK assay: histone H1 phosphorylation with [32P]ATP by cdc2/cyclinB kinase; type: biochemical, starfish (Marthasterias glacialis); settings: read-out: IC50 ± SD CDK1
Procedure: Assays are available for testing the inhibitory activity of the compounds of interest against a range of CDK/cyclin complexes, including CDK1/cyclin A, CDK1/cyclin B, CDK1/cyclin F, CDK2/cyclin A, CDK2/cyclin E, CDK4/cyclin D, CDK5/35 and CDK6/cyclin D3. […]
(§1) By way of example, however, a typical protocol is summarised below.
Buffer C (containing 6 mM β-glycerophosphate, 30 mM nitrophenyl phosphate, 25 mM MOPS pH 7.0, 5 mM EGTA, 15 mM MgCl2, […] and 0.1 mM sodium orthovanadate) is made up as follows:
Affinity purified p34 cdc2(CDK1)/cyclinB from M-phase starfish (Marthasterias glacialis) in 20% glycerol is stored at −80° C. in chest freezer
Histone H1 (type III-S (Sigma) 4° C.) 5 mg/ml in buffer C.
[^32P]ATP 75 mM: Make up using (multiples of) the following proportions:
DMSO cannot exceed 1% in the assay mixture. Inhibitors are added at 1/10 final assay volume and 10× final strength. DMSO stocks must therefore be diluted to 10× final desired concentration in ≦10% DMSO, ≧90% buffer C.
All reagents (except DMSO stocks) should be kept on ice until assay initiated.
Start reaction in each tube at 30 second intervals b)y adding
5 ml [^32P]ATP vortexing and placing in rack in waterbath at 30° C.
Terminate reaction after 10 min at 30 second intervals in tubes in same order by removing […] reaction mix and spotting onto appropriately labelled filter, allowing to dry for 20-30 seconds and transferring to stirring 1% phosphoric acid.
Blank incubation is performed as above but without histone (add […] buffer C instead) Washing blank is […] ATP added directly to filter.
Wash filters 5-6 times 5 min each
Dry the filters on paper towel
Count in mini scintillation vials with 5 ml scintillant.
NB. The assay can be simplified by making up stock reaction mix as follows:
(1 part cdc2/cyclinB, 16 parts buffer C, 5 parts histone H1)×Number of assay tubes+1 and add […] to each assay tube containing […] buffer C±inhibitor.
It is still necessary, however, to make up assay blank (i.e. without histone) separately.

CDK2 = CDK2 (Homo sapiens, UniProt P24941); experiment: Inhibition of CDK2 (CDK inhibition assay); type: biochemical; settings: read-out: IC50 ± SD CDK2
Description: Assays are available for testing the inhibitory activity of the compounds of interest against a range of CDK/cyclin complexes, including CDK1/cyclin A, CDK1/cyclin B, CDK1/cyclin F, CDK2/cyclin A, CDK2/cyclin E, CDK4/cyclin D, CDK5/35 and CDK6/cyclin D3.
Apart from reference compounds, the compounds listed are accompanied by an NU reference or identification code number.
as §1

Compound | IC50 (p34 cdc2(CDK1)/cyclinB; values given in μM) [µM] | IC50 (CDK2; values given in μM) | IC50 (p34 cdc2(CDK1)/cyclinB; values in nM) | IC50 (CDK2; values in nM) [µM]
c1ccc(Nc2nc(OCC3CCCCC3)c3nc[nH]c3n2)cc1 [NU6094, 2-Anilino-6-cyclohexylmethoxypurine] | 1.6 ± 0.1 | – | – | –
Brc1cccc(Nc2nc(OCC3CCCCC3)c3nc[nH]c3n2)c1 [NU6095, 2-(3′-Bromoanilino)-6-cyclohexylmethoxypurine] | 5.3 ± 0.8 | – | – | –
COc1cccc(Nc2nc(OCC3CCCCC3)c3nc[nH]c3n2)c1 [NU6096, 6-Cyclohexylmethoxy-2-(3′-methoxyanilino)purine] | 2.2 ± 0.2 | – | – | –
Fc1cccc(Nc2nc(OCC3CCCCC3)c3nc[nH]c3n2)c1 [NU6098, 6-Cyclohexylmethoxy-2-(3′-fluoroanilino)purine] | ~10 | ~10 µM | – | –
CCc1cccc(Nc2nc(OCC3CCCCC3)c3nc[nH]c3n2)c1 [NU6099, 6-Cyclohexylmethoxy-2-(3′-ethylanilino)purine] | > 10 | > 10 µM | – | –
COc1ccc(Nc2nc(OCC3CCCCC3)c3nc[nH]c3n2)cc1 [NU6100, 6-Cyclohexylmethoxy-2-(4′-methoxyanilino)purine] | 0.8 ± 0.01 | – | – | –
CSc1cccc(Nc2nc(OCC3CCCCC3)c3nc[nH]c3n2)c1 [NU6101, 6-Cyclohexylmethoxy-2-(3′-methylmercaptoanilino)purine] | 2.4 ± 0.2 | – | – | –
Fc1ccc(Nc2nc(OCC3CCCCC3)c3nc[nH]c3n2)cc1 [NU6116, 6-Cyclohexylmethoxy-2-(4′-fluoroanilino)purine] | > 10 | > 10 µM | – | –
CSc1ccc(Nc2nc(OCC3CCCCC3)c3nc[nH]c3n2)cc1 [NU6117, 6-Cyclohexylmethoxy-2-(4′-methylmercaptoanilino)purine] | > 10 | > 10 µM | – | –
COC(=O)c1ccc(Nc2nc(OCC3CCCCC3)c3nc[nH]c3n2)cc1 [NU6118, Methyl 4-N-(6′-Cyclohexylmethoxypurin-2′-yl)aminobenzoate] | ~10 | ~10 µM | – | –
Fc1ccc(Nc2nc(OCC3CCCCC3)c3nc[nH]c3n2)cc1Cl [NU6119, 6-Cyclohexylmethoxy-2-(3′-chloro-4′-fluoroanilino)purine] | ~10 | ~10 µM | – | –
N#CCc1ccc(Nc2nc(OCC3CCCCC3)c3nc[nH]c3n2)cc1 [NU6121, 6-Cyclohexylmethoxy-2-(4′-cyanomethylanilino)purine] | 0.3 ± 0.1 | 0.3 ± 0.03 µM | – | –
O=S(=O)(NCc1ccccc1)c1ccc(Nc2nc(OCC3CCCCC3)c3nc[nH]c3n2)cc1 [NU6123, N-Benzyl-4-(cyclohexylmethoxypurine-2-ylamino)-benzenesulfonamide] | 0.7 ± 0.3 | 0.2 ± 0.1 µM | – | –
NS(=O)(=O)c1ccc(CNc2nc(OCC3CCCCC3)c3nc[nH]c3n2)cc1 [NU6124, 4-[(6-Cyclohexylmethoxypurine-2-ylamino)methyl]benzenesulfonamide] | 17 ± 0.3 | 15 µM and 13 µM | – | –
CC(=O)c1ccc(Nc2nc(OCC3CCCCC3)c3nc[nH]c3n2)cc1 [NU6125] | 0.5 ± 0.2 | 0.3 ± 0.04 µM | – | –
C[S+]([O-])c1ccc(Nc2nc(OCC3CCCCC3)c3nc[nH]c3n2)cc1 (stereo not drawn) [NU6126] | 0.2 ± 0.1 | – | – | –
CNS(=O)(=O)c1ccc(Nc2nc(OCC3CCCCC3)c3nc[nH]c3n2)cc1 [NU6127, 4-(6-Cyclohexylmethoxy-2-ylamino)-N-methylbenzenesulfonamide] | – | – | 0.009 µM and 0.01 µM | –
CN(C)S(=O)(=O)c1ccc(Nc2nc(OCC3CCCCC3)c3nc[nH]c3n2)cc1 [NU6128, 4-(6-Cyclohexylmethoxy-2-ylamino)-N,N-dimethylbenzenesulfonamide] | – | – | 0.077 ± 0.005 µM | –
CCNS(=O)(=O)c1ccc(Nc2nc(OCC3CCCCC3)c3nc[nH]c3n2)cc1 [NU6129, 4-(6Cyclohexylmethoxy-2-ylamino)-N-ethylbenzenesulfonamide] | – | – | 0.007 µM and 0.009 µM | 0.008 ± 0.002

Compound | IC50 (p34 cdc2(CDK1)/cyclinB; values given in μM) [µM] | IC50 (CDK2; values given in μM) | IC50 (p34 cdc2(CDK1)/cyclinB; values in nM) | IC50 (CDK2; values in nM) [µM]
CC(C)CNS(=O)(=O)c1ccc(Nc2nc(OCC3CCCCC3)c3nc[nH]c3n2)cc1 [NU6130, 4-(6Cyclohexylmethoxy-2-ylamino)-N-isobutylbenzenesulfonamide] | – | – | 0.071 ± 0.009 µM | 0.069 ± 0.013
O=S(=O)(NC1CC1)c1ccc(Nc2nc(OCC3CCCCC3)c3nc[nH]c3n2)cc1 [NU6131, 4-(6-Cyclohexylmethoxy-9H-purin-2-ylamino)-N-cyclopropylbenzenesulfonamide] | – | – | 0.013 ± 0.005 µM | 0.008 ± 0.0003
O=S(=O)(Nc1cccc(Cl)c1)c1ccc(Nc2nc(OCC3CCCCC3)c3nc[nH]c3n2)cc1 [NU6132, N-(3-Chloro-phenyl)-4-(6-cyclohexylmethoxy-9H-purin-2-ylamino)benzenesulfonamide] | – | 5.7 µM | – | –
CCCNS(=O)(=O)c1ccc(Nc2nc(OCC3CCCCC3)c3nc[nH]c3n2)cc1 [NU6133, 4-(6-Cyclohexylmethoxy-9H-purin-2-ylamino)-N-propylbenzenesulfonamide] | – | – | 0.034 ± 0.004 µM | 0.017 ± 0.013
O=S(=O)(NCC1CCCO1)c1ccc(Nc2nc(OCC3CCCCC3)c3nc[nH]c3n2)cc1 (stereo not drawn) [NU6134, 4-(6-Cyclohexylmethoxy-9H-purin-2-ylamino)-N-(tetrahydrofuran-2-ylmethyl)benzenesulfonamide] | – | – | 0.0072 µM and 0.0073 µM | 0.007 ± 0.0032
COCCNS(=O)(=O)c1ccc(Nc2nc(OCC3CCCCC3)c3nc[nH]c3n2)cc1 [NU6135, 4-(6-Cyclohexylmethoxy-9H-purin-2-ylamino)-N-(2-methoxyethyl)benzenesulfonamide] | – | – | 0.018 ± 0.004 µM | 0.006 ± 0.0015
CN(C)C(=O)c1ccc(Nc2nc(OCC3CCCCC3)c3nc[nH]c3n2)cc1 [NU6136, 4-(6-Cyclohexylmethoxy-9H-purin-2-ylamino)-N,N-dimethylbenzamide] | 0.6 | 0.2 µM | – | –
CNC(=O)c1ccc(Nc2nc(OCC3CCCCC3)c3nc[nH]c3n2)cc1 [NU6139, 4-(6-Cyclohexylmethoxy-9H-purin-2-ylamino)-N-methylbenzamide] | 0.7 | 0.3 µM | – | –
CCN(CC)C(=O)c1ccc(Nc2nc(OCC3CCCCC3)c3nc[nH]c3n2)cc1 [NU6140, 4-(6-Cyclohexylmethoxy-9H-purin-2-ylamino)-N,N-diethylbenzamide] | 0.7 | – | – | –
CCCNC(=O)c1ccc(Nc2nc(OCC3CCCCC3)c3nc[nH]c3n2)cc1 [NU6142, 4-(6-Cyclohexylmethoxy-9H-purin-2-ylamino)-N-propylbenzamide] | 0.42 | – | – | ~0.1
CCNC(=O)c1ccc(Nc2nc(OCC3CCCCC3)c3nc[nH]c3n2)cc1 [NU6143, 4-(6-Cyclohexylmethoxy-9H-purin-2-ylamino)-N-ethylbenzamide] | – | – | > 0.1 µM | > 0.1
O=S(=O)(NCCO)c1ccc(Nc2nc(OCC3CCCCC3)c3nc[nH]c3n2)cc1 [NU6144, 4-(6-Cyclohexylmethoxy-9H-purin-2-ylamino)-N-(2-hydroxyethyl)benzenesulfonamide] | – | – | 0.008 ± 0.0002 µM | 0.004 ± 0.0015
O=S(=O)(Nc1nccs1)c1ccc(Nc2nc(OCC3CCCCC3)c3nc[nH]c3n2)cc1 [NU6145, 4-(6-Cyclohexylmethoxy-9H-purin-2-ylamino)-N-thiazol-2-ylbenzenesulfonamide] | – | – | 0.037 µM | 0.024
CC(O)CNS(=O)(=O)c1ccc(Nc2nc(OCC3CCCCC3)c3nc[nH]c3n2)cc1 (stereo not drawn) [NU6146, 4-(6-Cyclohexylmethoxy-9H-purin-2-ylamino)-N-(2-hydroxypropyl)benzenesulfonamide] | – | – | 0.014 ± 0.007 µM | 0.005 ± 0.001
O=C(O)c1ccc(Nc2nc(OCC3CCCCC3)c3nc[nH]c3n2)cc1 [NU6147, 4-(6-Cyclohexylmethoxypurin-2-ylamino)benzoic acid] | 0.24 | – | – | –
OCc1cccc(Nc2nc(OCC3CCCCC3)c3nc[nH]c3n2)c1 [NU6151, [3-(6-Cyclohexylmethoxy-9H-purin-2-ylamino)phenyl]methanol] | 0.3 ± 0.01 | – | – | –
O=S(=O)(Nc1ccccc1)c1ccc(Nc2nc(OCC3CCCCC3)c3nc[nH]c3n2)cc1 [NU6152, 4-(6-Cyclohexylmethoxy-9H-purin-2-ylamino)-N-phenyl-benzenesulfonamide] | 0.4 ± 0.1 | 0.2 ± 0.02 µM | – | –
O=S(=O)(NCC(O)CO)c1ccc(Nc2nc(OCC3CCCCC3)c3nc[nH]c3n2)cc1 (stereo not drawn) [NU6153, 4-(6-Cyclohexylmethoxy-9H-purin-2-ylamino)-N-(2,3-dihydroxypropyl)benzenesulfonamide] | – | – | 0.007 ± 0.001 µM | 0.005 ± 0.002
COc1cc(Nc2nc(OCC3CCCCC3)c3nc[nH]c3n2)ccc1S(N)(=O)=O [NU6161, 4-[6-Cyclohexylmethoxy-9H-purin-2-ylamino]-benzene(3′-methoxy)sulfonamide] | – | – | 0.103 ± 0.004 µM | –
